IC50 data for 9 molecules are collected here from ChEMBL document CHEMBL5726641, “Inhibitors of lysine methyl transferase” (2017).

As usually defined, the IC50 is the midpoint of a concentration-inhibition curve.

For this assay, the target named is Histone-lysine N-methyltransferase EZH2 (Homo sapiens, UniProt Q15910, Y641F). Nature of the assay: Biological Assay: EZH2 Histone Methyl Transferase Assay: The effectiveness of compounds of the present invention as inhibitors of histone methyl transferases can be readily tested by assays known to those skilled in the art. For example, in vitro histone methyl transferase assays may be conducted with a relevant purified histone methyl transferase and an appropriate synthetic substrate to determine the inhibitory activity of the compounds. Assays for inhibition of EZH2 by the instant compounds were performed in 384-well plates with reaction mixtures containing 350 nM of histone peptide substrate (ATKAAR-K(Me2)-SAPATGGVKKPHRYRPG-GK(Biotin), 500 nM S-[methyl-3H]adenosyl-L-methionine (55-85 Ci/mmol), 50 mM Tris-HCl (pH 9.0), 50 mM NaCl, 1 mM dithiothreitol, Tween-20 at 0.01% and fatty-acid free bovine serum albumin at 0.01%, and recombinant EZH2-641F complex (EZH2 Y641F/EED/SUZ12/RbAp48/AEBP2) at 5 nM (>98% purity, BPS Bioscience) or 15 nM (50% purity, in-house). Reaction mixtures were incubated at room temperature for 3 hours, and the reactions were terminated by 0.005% poly-L-lysine solution in 20 mM Tris-HCl (pH 7.5) and 150 mM NaCl. Reaction products were captured by binding to strepavidin-conjugated imaging beads. Incorporation of radioactive methyl group into the histone peptide substrate was determined in Leadseeker (GE Healthcare) by means of scintillation proximity assay. For orientation: In a scintillation proximity assay essentially only radioactivity close to the scintillant gives light.
Histone-lysine N-methyltransferase EZH2, sequence (Q15910 whole entry Y641F): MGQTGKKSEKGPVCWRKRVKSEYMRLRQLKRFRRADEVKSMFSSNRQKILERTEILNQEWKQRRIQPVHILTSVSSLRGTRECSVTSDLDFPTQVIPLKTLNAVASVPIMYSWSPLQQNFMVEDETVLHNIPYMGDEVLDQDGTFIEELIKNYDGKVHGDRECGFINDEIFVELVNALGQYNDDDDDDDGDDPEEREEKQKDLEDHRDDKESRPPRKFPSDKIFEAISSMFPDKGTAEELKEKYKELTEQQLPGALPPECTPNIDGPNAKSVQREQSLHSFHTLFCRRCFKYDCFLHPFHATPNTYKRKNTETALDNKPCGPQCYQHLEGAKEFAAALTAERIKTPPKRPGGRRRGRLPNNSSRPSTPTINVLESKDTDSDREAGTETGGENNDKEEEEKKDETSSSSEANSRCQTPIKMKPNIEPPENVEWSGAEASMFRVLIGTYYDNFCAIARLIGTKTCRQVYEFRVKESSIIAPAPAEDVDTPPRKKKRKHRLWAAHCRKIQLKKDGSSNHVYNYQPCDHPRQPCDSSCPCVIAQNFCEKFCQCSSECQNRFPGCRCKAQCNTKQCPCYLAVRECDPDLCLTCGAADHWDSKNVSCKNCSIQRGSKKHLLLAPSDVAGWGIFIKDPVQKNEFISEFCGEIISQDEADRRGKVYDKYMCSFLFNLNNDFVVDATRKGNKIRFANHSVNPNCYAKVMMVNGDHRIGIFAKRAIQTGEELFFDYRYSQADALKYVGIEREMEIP
For the molecule `CCCc1cc(C)[nH]c(=O)c1CNC(=O)c1cc2c(c(-c3ccc(N4CCNCC4)nc3)c1)OC(C)(C(C)C)C2` (centres undefined), the IC50 was < 500 nM.

Take `C=C(C)C1(C)Cc2cc(C(=O)NCc3c(C)cc(C)[nH]c3=O)cc(-c3ccc(N4CCNCC4)nc3)c2O1` (centres undefined): the IC50 is < 500 nM.

With `Cc1cc(C)c(CNC(=O)c2cc3c(c(C(F)(F)F)c2)OC(C)(C)C3)c(=O)[nH]1`, the IC50 was > 1000 nM.

On to `Cc1cc(C)c(CNC(=O)c2cc(Br)c3c(c2)OC/C=C\CO3)c(=O)[nH]1`, for which the IC50 is > 1000 nM.

For the molecule `C=C(C)C1(C)Cc2cc(C(=O)NCc3c(CCC)cc(C)[nH]c3=O)cc(-c3ccc(N4CCNCC4)nc3)c2O1` (centres undefined), the half-inhibitory concentration (IC50) was < 500 nM.

On to `COc1ccc(-c2cc(C(=O)NCc3c(C)cc(C)[nH]c3=O)cc3c2OC(C)(C(C)C)C3)cn1` (centres undefined), for which the IC50 is > 1000 nM.

As for `COc1ccc(-c2cc(C(=O)NCc3c(C)cc(C)[nH]c3=O)cc3c2OCC3(C)C)cn1`, the IC50 is > 1000 nM.

As for `C=C(C)C1(C)Cc2cc(C(=O)NCc3c(CCC)cc(C)[nH]c3=O)cc(-c3cnc(N4CCNCC4)nc3)c2O1` (centres undefined), the IC50 is < 500 nM.

Regarding `CCC1COc2cc(C(=O)NCc3c(C)cc(C)[nH]c3=O)cc(-c3ccc(N4CCNCC4)nc3)c2O1` (centres undefined), the IC50 was > 1000 nM.
